Measured values: patent US10245240B2, “Treatment of prostate carcinoma” (Pellficure Pharmaceuticals, Inc., priority 2010, dated 2019)

Assays:
PTEN-P2/GFP tumor = assay: In vivo effect of plumbagin combined with castration, pseudo-orthotopic chamber model (Example 5); set-up: species or system nude mice
Experimental: Animal model and surgical techniques: Animal experiments have been approved as appropriate. All surgical procedures are performed in a sterile laminar flow hood. Dorsal skinfold chambers and surgical instruments are autoclaved before use. Saline used to keep tissue moist during surgical preparation is mixed with gentamicin ([…]).
Male Nude mice (25-35 g body weight) are anesthetized (7.3 mg ketamine hydrochloride and 2.3 mg xylazine/100 g body weight, i.p.) and placed on a heating pad. Two symmetrical titanium frames are implanted into a dorsal skinfold, so as to sandwich the extended double layer of skin. A 15 mm full thickness circular layer is excised. The underlying muscle (M. cutaneous max.) and subcutaneous tissues are covered with a glass coverslip incorporated in one of the frames. After a recovery period of 2-3 days, prostate tissue and cancer cell spheroids are carefully placed in the chamber. Small circular Band Aids are applied on the backside of the chamber after surgery to prevent scratching. Before surgery, Buprenorphine (0.1 mg/kg) will be given IP. After surgery Meloxicam will be given in the drinking water for 4 days Meloxicam (5.0 mg/ml), is added at 35 μl per 100 ml of water to be medicated.
Preparation of stroma: A male donor mouse is euthanized and the anterior prostate tissue is excised, put in a Petri dish with antibiotics (gentamicin 50 μl/ml), and minced with fine scissors into small pieces (<1 mm^2) for implantation.
Preparation of tumor spheroids: Liquid overlay plates are generated using 1% Agarose melted in DMEM that is added to round-bottom 96-well plates (50 ul/well). […] Viability is determined using Trypan blue. […]. The size of the implanted spheroid can be determined precisely to minimize variations between animals. […]
Intravital microscopy: Fluorescence microscopy is performed using a Mikron Instrument Microscope equipped with epi-illuminator and video-triggered stroboscopic illumination from a xenon arc (MV-7600, EG&G). […]

[1] = test system: LNCaP hormone-sensitive human prostate cancer cells; assay: Dose response plumbagin in human LNCaP cells, cell counting in absence of DHT; type: cell-based; conditions: no DHT; for % control / cell number/20 mean / cell number/20 trial 1 / cell number/20 trial 2 / cell number/20 trial 3 / cell number/20 trial 4: 24 hours
Experimental: LNCaP hormone-sensitive human prostate cancer cells were placed in androgen withdrawal medium in the absence of DHT (dihydrotestosterone). The absence of DHT simulates surgical or chemical castration. The androgen withdrawal medium was phenol-red free DMEM high-glucose containing 10% charcoal-treated Fetal Bovine Serum.
Plumbagin was added at the indicated concentrations in Table 6 for 24 hours. Cells were trypsinized and counted using a Cell Coulter counter Multisizer II, which excludes debris. The results in Table 6 represent cell numbers as percent of control (in which the number of cells in the absence of drug is 100%). FIG. 8 illustrates the effect of plumbagin in human LNCaP cells.

CC1=CC(=O)c2c(O)cccc2C1=O [Plumbagin, 5-hydroxy-2-methylnaphthalene-1,4-dione]
efficiency of combination of plumbagin with castration versus either treatment alone (PTEN-P2/GFP tumor; plumbagin 1 mg/kg intraperitoneal once/day soon after surgical castration): more efficient in vivo than either treatment alone
tumor size, castration with plumbagin (PTEN-P2/GFP tumor; plumbagin 1 mg/kg ip once/day plus surgical castration): significant decreases in tumor size
tumor size, plumbagin only (PTEN-P2/GFP tumor; plumbagin 1 mg/kg ip once/day, no castration): did not lead to a marked decrease in tumor size
% control ([1]; 0.5 μM plumbagin): 84.13%
cell number/20 mean ([1]; 0.5 μM plumbagin): 6335
cell number/20 trial 1 ([1]; 0.5 μM plumbagin): 6422
cell number/20 trial 2 ([1]; 0.5 μM plumbagin): 5989
cell number/20 trial 3 ([1]; 0.5 μM plumbagin): 6453
cell number/20 trial 4 ([1]; 0.5 μM plumbagin): 6475
% control ([1]; 1 μM plumbagin): 90.95%
cell number/20 mean ([1]; 1 μM plumbagin): 6849
cell number/20 trial 1 ([1]; 1 μM plumbagin): 6997
cell number/20 trial 2 ([1]; 1 μM plumbagin): 7139
cell number/20 trial 3 ([1]; 1 μM plumbagin): 6769
cell number/20 trial 4 ([1]; 1 μM plumbagin): 6490
% control ([1]; 2 μM plumbagin): 66.23%
cell number/20 mean ([1]; 2 μM plumbagin): 4987
cell number/20 trial 1 ([1]; 2 μM plumbagin): 5324
cell number/20 trial 2 ([1]; 2 μM plumbagin): 5282
cell number/20 trial 3 ([1]; 2 μM plumbagin): 4522
cell number/20 trial 4 ([1]; 2 μM plumbagin): 4821
% control ([1]; 4 μM plumbagin): 42.21%
cell number/20 mean ([1]; 4 μM plumbagin): 3179
cell number/20 trial 1 ([1]; 4 μM plumbagin): 3005
cell number/20 trial 2 ([1]; 4 μM plumbagin): 3082
cell number/20 trial 3 ([1]; 4 μM plumbagin): 3327
cell number/20 trial 4 ([1]; 4 μM plumbagin): 3300
% control ([1]; 6 μM plumbagin): 18.50%
cell number/20 mean ([1]; 6 μM plumbagin): 1393
cell number/20 trial 1 ([1]; 6 μM plumbagin): 1396
cell number/20 trial 2 ([1]; 6 μM plumbagin): 1500
cell number/20 trial 3 ([1]; 6 μM plumbagin): 1323
cell number/20 trial 4 ([1]; 6 μM plumbagin): 1352
% control ([1]; 8 μM plumbagin): 3.93%
cell number/20 mean ([1]; 8 μM plumbagin): 296
cell number/20 trial 1 ([1]; 8 μM plumbagin): 330
cell number/20 trial 2 ([1]; 8 μM plumbagin): 283
cell number/20 trial 3 ([1]; 8 μM plumbagin): 284
cell number/20 trial 4 ([1]; 8 μM plumbagin): 287
efficiency of plumbagin with simulated castration versus castration alone ([1]; in vitro, LNCaP cells): more efficient than treatment castration alone
